Source: patent US9120770B2, “Substituted pyridine and pyrazine compounds as PDE4 inhibitors” (DART NEUROSCIENCE (CAYMAN) LTD., priority 2013, dated 2015)

target: PDE4D3 (Homo sapiens, UniProt Q08499)
Sequence (Q08499 1-673 isoform Q08499-2): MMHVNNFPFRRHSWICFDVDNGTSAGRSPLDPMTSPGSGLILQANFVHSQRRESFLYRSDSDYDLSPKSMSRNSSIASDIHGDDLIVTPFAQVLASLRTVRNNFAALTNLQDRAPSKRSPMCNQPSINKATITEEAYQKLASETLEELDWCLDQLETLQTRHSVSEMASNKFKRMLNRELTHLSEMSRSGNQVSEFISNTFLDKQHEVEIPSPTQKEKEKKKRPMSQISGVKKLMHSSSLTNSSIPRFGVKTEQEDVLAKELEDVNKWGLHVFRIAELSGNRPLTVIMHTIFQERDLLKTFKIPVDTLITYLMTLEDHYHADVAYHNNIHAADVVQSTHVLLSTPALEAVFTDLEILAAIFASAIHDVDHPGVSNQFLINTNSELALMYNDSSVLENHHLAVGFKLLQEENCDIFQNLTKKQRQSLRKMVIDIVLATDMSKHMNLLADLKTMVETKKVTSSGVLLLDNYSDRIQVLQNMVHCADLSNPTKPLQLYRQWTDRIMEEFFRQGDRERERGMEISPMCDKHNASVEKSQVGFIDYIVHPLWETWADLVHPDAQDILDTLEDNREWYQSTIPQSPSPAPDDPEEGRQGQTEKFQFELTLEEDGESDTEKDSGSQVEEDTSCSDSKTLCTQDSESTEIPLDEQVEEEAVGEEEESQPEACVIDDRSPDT

**Q.** How did the EC50 turn out when `COc1cccc(-c2cc(Cn3cnc(N)n3)cnc2OC)c1` [Example 221, 1-{[6-Methoxy-5-(3-methoxyphenyl)pyridin-3-yl]methyl}-1H-1,2,4-triazol-3-amine] was run?
**A.** 100 to 1000 nM

**Q.** How did the EC50 turn out when `COc1ncc(Cn2cnc(N)n2)cc1-c1cccc(C)c1` [Example 222, 1-{[6-Methoxy-5-(3-methylphenyl)pyridin-3-yl]methyl}-1H-1,2,4-triazol-3-amine] was run?
**A.** 100 to 1000 nM

**Q.** Which EC50 does the source give for `COc1ncc(Cn2cnc(N)n2)cc1-c1cccc(C#N)c1` [Example 223, 3-{5-[(3-Amino-1H-1,2,4-triazol-1-yl)methyl]-2-methoxypyridin-3-yl}benzonitrile] here?
**A.** 100 to 1000 nM

**Q.** `CCOc1cccc(-c2cc(Cn3cnc(N)n3)cnc2OC)c1` [Example 224, 1-{[5-(3-Ethoxyphenyl)-6-methoxypyridin-3-yl]methyl}-1H-1,2,4-triazol-3-amine] was tested. Which EC50 did it give?
**A.** 100 to 1000 nM

**Q.** `COc1ncc(Cn2cnc(N)n2)cc1-c1cccc(OC2CC2)c1` [Example 225, 1-{[5-(3-Cyclopropoxyphenyl)-6-methoxypyridin-3-yl]methyl}-1H-1,2,4-triazol-3-amine] was tested. Which EC50 did it give?
**A.** 1000 to 10000 nM

**Q.** `CCOc1ncc(Cn2cnc(N)n2)cc1-c1cccc(OC(F)F)c1` [Example 226, 1-({5-[3-(Difluoromethoxy)phenyl]-6-ethoxypyridin-3-yl}methyl)-1H-1,2,4-triazol-3-amine] was tested. Which EC50 did it give?
**A.** < 100 nM

**Q.** Which EC50 does the source give for `COc1cccc(-c2cc(Cn3cnc(N)n3)cnc2OC(F)F)c1` [Example 227, 1-{[6-(Difluoromethoxy)-5-(3-methoxyphenyl)pyridin-3-yl]methyl}-1H-1,2,4-triazol-3-amine] here?
**A.** 100 to 1000 nM

**Q.** How did the EC50 turn out when `COc1ncc(Cn2cnc(N)n2)cc1-c1cncc(Cl)c1` [Example 228, 1-{[5-(5-Chloropyridin-3-yl)-6-methoxypyridin-3-yl]methyl}-1H-1,2,4-triazol-3-amine] was run?
**A.** 1000 to 10000 nM

**Q.** With `COc1ncc(Cn2cnc(N)n2)cc1-c1ccnc(OC(F)F)c1` [Example 229, 1-({5-[2-(Difluoromethoxy)pyridin-4-yl]-6-methoxypyridin-3-yl}methyl)-1H-1,2,4-triazol-3-amine] as the compound, how does the EC50 read?
**A.** < 100 nM

**Q.** For `CCOc1ncc(Cn2cnc(N)n2)cc1-c1ccnc(OC(F)F)c1` [Example 230, 1-({5-[2-(Difluoromethoxy)pyridin-4-yl]-6-ethoxypyridin-3-yl}methyl)-1H-1,2,4-triazol-3-amine], which EC50 is on record?
**A.** < 100 nM

**Q.** With `Nc1ncn(Cc2cnc(OC(F)F)c(-c3ccnc(OC(F)F)c3)c2)n1` [Example 231, 1-{[6-(Difluoromethoxy)-5-[2-(difluoromethoxy)pyridin-4-yl]pyridin-3-yl]methyl}-1H-1,2,4-triazol-3-amine] as the compound, how does the EC50 read?
**A.** 100 to 1000 nM

**Q.** How did the EC50 turn out when `COc1ncc(Cn2ccc(N)n2)cc1-c1cccc(OC(F)F)c1` [Example 232, 1-({5-[3-(Difluoromethoxy)phenyl]-6-methoxypyridin-3-yl}methyl)-1H-pyrazol-3-amine] was run?
**A.** < 100 nM

**Q.** Which EC50 does the source give for `COc1ncc(Cn2nccc2N)cc1-c1cccc(OC(F)F)c1` [Example 233, 1-({5-[3-(Difluoromethoxy)phenyl]-6-methoxypyridin-3-yl}methyl)-1H-pyrazol-5-amine] here?
**A.** 100 to 1000 nM

**Q.** For `CCOc1ncc(Cn2cc(Cl)c(N)n2)cc1-c1cccc(Cl)c1` [Example 234, 4-Chloro-1-{[5-(3-chlorophenyl)-6-ethoxypyridin-3-yl]methyl}-1H-pyrazol-3-amine], which EC50 is on record?
**A.** 100 to 1000 nM

**Q.** With `CCOc1ncc(Cn2ncc(Cl)c2N)cc1-c1cccc(Cl)c1` [Example 235, 4-Chloro-1-{[5-(3-chlorophenyl)-6-ethoxypyridin-3-yl]methyl}-1H-pyrazol-5-amine] as the compound, how does the EC50 read?
**A.** 1000 to 10000 nM

**Q.** Which EC50 does the source give for `COc1ncc(Cn2cc(N)cn2)nc1-c1cccc(Cl)c1` [Example 236, 1-{[6-(3-Chlorophenyl)-5-methoxypyrazin-2-yl]methyl}-1H-pyrazol-4-amine] here?
**A.** > 10000 nM

**Q.** `CCOc1ncc(Cn2cnc(N)n2)nc1-c1cccc(OC(F)F)c1` [Example 237, 1-((6-(3-(Difluoromethoxy)phenyl)-5-ethoxypyrazin-2-yl)methyl)-1H-1,2,4-triazol-3-amine] was tested. Which EC50 did it give?
**A.** 1000 to 10000 nM

**Q.** How did the EC50 turn out when `CNc1ncn(Cc2cnc(OC(F)F)c(-c3cccc(Cl)c3)c2)n1` [Example 238, 1-{[5-(3-Chlorophenyl)-6-(difluoromethoxy)pyridin-3-yl]methyl}-N-methyl 1H-1,2,4-triazol-3-amine] was run?
**A.** 100 to 1000 nM

**Q.** With `CN(C)c1ncn(Cc2cnc(OC(F)F)c(-c3cccc(Cl)c3)c2)n1` [Example 239, 1-{[5-(3-Chlorophenyl)-6-(difluoromethoxy)pyridin-3-yl]methyl}-N,N-dimethyl-1H-1,2,4-triazol-3-amine] as the compound, how does the EC50 read?
**A.** 100 to 1000 nM

**Q.** Which EC50 does the source give for `NCc1ncn(Cc2cnc(OC(F)F)c(-c3cccc(Cl)c3)c2)n1` [Example 240, (1-{[5-(3-Chlorophenyl)-6-(difluoromethoxy)pyridin-3-yl]methyl}-1H-1,2,4-triazol-3-yl)methanamine] here?
**A.** 1000 to 10000 nM

**Q.** `COc1ncc(Cn2cnc(C(N)=O)n2)cc1-c1cccc(Cl)c1` [Example 241, 1-{[5-(3-Chlorophenyl)-6-methoxypyridin-3-yl]methyl}-1H-1,2,4-triazole-3-carboxamide] was tested. Which EC50 did it give?
**A.** 1000 to 10000 nM

**Q.** Which EC50 does the source give for `COc1ncc(Cn2cncn2)cc1-c1cn[nH]c1` [Example 242, 2-Methoxy-3-(1H-pyrazol-4-yl)-5-(1H-1,2,4-triazol-1-ylmethyl)pyridine] here?
**A.** > 10000 nM

**Q.** Which EC50 does the source give for `COc1ncc(Cc2ccc(C(=O)NC3COC3)cc2)cc1-c1cccc(Cl)c1` [Example 243, 4-{[5-(3-Chlorophenyl)-6-methoxypyridin-3-yl]methyl}-N-(oxetan-3-yl)benzamide] here?
**A.** 1000 to 10000 nM

**Q.** `CNC(=O)c1ccc(Cc2cnc(OC(F)F)c(-c3cccc(Cl)c3)c2)cn1` [Example 244, 5-{[5-(3-Chlorophenyl)-6-(difluoromethoxy)pyridin-3-yl]methyl}-N-methylpyridine-2-carboxamide] was tested. Which EC50 did it give?
**A.** 100 to 1000 nM

**Q.** `NC(=O)C1(c2ccc(Cc3cnc(OC(F)F)c(-c4cccc(Cl)c4)c3)cc2)CC1` [Example 245, 1-(4-{[5-(3-Chlorophenyl)-6-(difluoromethoxy)pyridin-3-yl]methyl}phenyl)cyclopropane-1-carboxamide] was tested. Which EC50 did it give?
**A.** 100 to 1000 nM

**Q.** For `NC(=O)Cc1ccc(Cc2cnc(OC(F)F)c(-c3cccc(Cl)c3)c2)cc1` [Example 246, 2-(4-{[5-(3-Chlorophenyl)-6-(difluoromethoxy)pyridin-3-yl]methyl}phenyl)acetamide], which EC50 is on record?
**A.** < 100 nM

**Q.** Which EC50 does the source give for `COc1ncc(Cn2cnc(C(C)(C)O)n2)cc1-c1cccc(Cl)c1` [Example 247, 2-(1-{[5-(3-Chlorophenyl)-6-methoxypyridin-3-yl]methyl}-1H-1,2,4-triazol-3-yl)propan-2-ol] here?
**A.** 1000 to 10000 nM

**Q.** `COc1ncc(Cn2cncn2)cc1-c1cnn(C)c1` [Example 248, 2-Methoxy-3-(1-methyl-1H-pyrazol-4-yl)-5-(1H-1,2,4-triazol-1-ylmethyl)pyridine] was tested. Which EC50 did it give?
**A.** 1000 to 10000 nM

**Q.** For `COc1ncc(Cn2ncnc2C(C)(C)O)cc1-c1cccc(Cl)c1` [Example 249, 2-(1-{[5-(3-Chlorophenyl)-6-methoxypyridin-3-yl]methyl}-1H-1,2,4-triazol-5-yl)propan-2-ol], which EC50 is on record?
**A.** > 10000 nM

**Q.** `COc1ncc(Cc2ccc(C(C)(C)O)cc2)cc1-c1cccc(Cl)c1` [Example 250, 2-(4-{[5-(3-Chlorophenyl)-6-methoxypyridin-3-yl]methyl}phenyl)propan-2-ol] was tested. Which EC50 did it give?
**A.** 100 to 1000 nM

**Q.** For `COc1ncc(Cc2ccc(C(C)(C)O)nc2)cc1-c1cccc(Cl)c1` [Example 251, 2-(5-{[5-(3-Chlorophenyl)-6-methoxypyridin-3-yl]methyl}pyridin-2-yl)propan-2-ol], which EC50 is on record?
**A.** 100 to 1000 nM
